Laboratory results published in patent US8598211B2, “Carboxamide compounds and their use as calpain inhibitors IV” (AbbVie Inc., priority 2009, dated 2013).
pKi: −log10 of the molar value.

How the values were obtained:
Type in all cases: biochemical
calpain-I = target: T1, calpain-I (Homo sapiens, UniProt P07384); test: Calpain I kinetic fluorescence enzyme inhibition assay; details: calpain-I from human erythrocytes, Suc-Leu-Tyr-AMC, pH 7.3; apparent Ki from IC50 by Cheng-Prussoff
T1 construct: calpain-I—isolated from human erythrocytes; purchased Calbiochem 208713; host or cells: human erythrocytes (natural source)
T1 sequence (P07384 1-714): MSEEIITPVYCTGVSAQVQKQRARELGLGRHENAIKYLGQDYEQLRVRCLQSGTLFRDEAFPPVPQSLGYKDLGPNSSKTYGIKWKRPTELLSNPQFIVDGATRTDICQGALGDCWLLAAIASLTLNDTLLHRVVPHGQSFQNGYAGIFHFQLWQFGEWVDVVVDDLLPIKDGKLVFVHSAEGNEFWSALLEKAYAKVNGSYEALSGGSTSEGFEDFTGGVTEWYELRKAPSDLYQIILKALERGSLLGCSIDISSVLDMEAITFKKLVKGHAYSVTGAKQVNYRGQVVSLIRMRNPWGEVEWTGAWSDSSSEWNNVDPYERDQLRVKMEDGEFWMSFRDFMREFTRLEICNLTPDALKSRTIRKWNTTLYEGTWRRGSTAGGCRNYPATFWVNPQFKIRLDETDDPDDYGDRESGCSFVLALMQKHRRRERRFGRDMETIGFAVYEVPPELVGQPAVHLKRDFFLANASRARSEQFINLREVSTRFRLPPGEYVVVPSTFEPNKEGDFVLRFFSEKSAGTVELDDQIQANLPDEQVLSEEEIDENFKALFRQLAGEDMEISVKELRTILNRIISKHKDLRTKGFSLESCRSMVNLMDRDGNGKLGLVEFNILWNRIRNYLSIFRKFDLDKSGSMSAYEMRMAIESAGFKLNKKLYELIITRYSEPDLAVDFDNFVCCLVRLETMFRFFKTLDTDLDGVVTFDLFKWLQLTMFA
T1 sequence (P04632 1-268 partner): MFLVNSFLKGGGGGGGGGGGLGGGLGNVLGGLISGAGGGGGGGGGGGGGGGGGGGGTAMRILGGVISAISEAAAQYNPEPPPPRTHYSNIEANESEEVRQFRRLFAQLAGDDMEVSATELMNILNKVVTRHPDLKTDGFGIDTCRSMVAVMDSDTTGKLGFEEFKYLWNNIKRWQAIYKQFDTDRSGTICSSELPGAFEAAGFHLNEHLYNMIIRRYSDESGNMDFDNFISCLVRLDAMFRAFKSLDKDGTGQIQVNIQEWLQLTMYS
Method: Testing for blockade of the corresponding enzymic activities was carried out by means of kinetic fluorescence assays (excitation 390 nm, emission 460 nm).
Apparent Ki values were calculated from the experimentally determined IC50 values by the Cheng-Prussoff relation assuming a reversible competitive enzyme inhibition.
20 nM calpain-I—isolated from human erythrocytes (Calbiochem #208713), 100 μM Suc-Leu-Tyr-AMC (Bachem #I-1355) as substrate in buffer with 62 mM imidazole, 0.3 mM CaCl2, 0.10% CHAPS, 0.05% BSA, 1 mM DTT at pH 7.3 and room temperature.

cathepsin S = target: T2, cathepsin S (Homo sapiens, UniProt P25774); test: Cathepsin S kinetic fluorescence enzyme inhibition assay; details: selectivity ratio versus calpain
T2 construct: purchased Calbiochem 219343; host or cells: E. coli
T2 sequence (P25774 115-331): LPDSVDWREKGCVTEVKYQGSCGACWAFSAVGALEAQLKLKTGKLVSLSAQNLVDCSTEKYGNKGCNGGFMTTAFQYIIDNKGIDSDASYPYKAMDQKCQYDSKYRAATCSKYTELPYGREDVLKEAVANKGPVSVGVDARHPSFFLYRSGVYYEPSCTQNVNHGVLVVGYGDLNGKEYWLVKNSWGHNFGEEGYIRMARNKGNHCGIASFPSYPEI
Method: 0.5 nM recombinant human cathepsin S from E. coli (Calbiochem #219343), 20 μM Z-Val-Val-Arg-AMC (Bachem #I-1540) as substrate in 50 mM MES, 2 mM EDTA, 0.05% Brij 35, 2.5 mM L-cysteine, pH 6.0, room temperature.

cathepsin L = target: T3, cathepsin L (Homo sapiens, UniProt P07711); test: Cathepsin L kinetic fluorescence enzyme inhibition assay; details: selectivity ratio versus calpain
T3 construct: cathepsin L—isolated from human liver; purchased Calbiochem 219402; host or cells: human liver (natural source)
T3 sequence (P07711 114-333): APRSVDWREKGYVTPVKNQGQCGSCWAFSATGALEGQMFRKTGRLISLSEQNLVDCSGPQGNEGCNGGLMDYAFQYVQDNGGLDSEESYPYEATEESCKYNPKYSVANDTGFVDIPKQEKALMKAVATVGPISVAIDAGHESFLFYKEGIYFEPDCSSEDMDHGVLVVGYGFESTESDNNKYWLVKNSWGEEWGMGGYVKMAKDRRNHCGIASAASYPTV
Method: 1 nM cathepsin L—isolated from human liver (Calbiochem #219402), 2 μM Z-Phe-Arg-AMC (Bachem #I-1160) as substrate in 50 mM MES, 2 mM EDTA, 0.05% Brij 35, 2.5 mM L-cysteine, pH 6.0, room temperature.

SMILES	pKi (calpain-I)	Sel cat. S (Ki(cathepsin S)/Ki(calpain) ratio) (cathepsin S)	Sel cat. L (Ki(cathepsin L)/Ki(calpain) ratio) (cathepsin L)
O=C(NCc1nc2ccccc2o1)C(=O)C(Cc1ccccc1)NC(=O)c1cccnc1-n1ccc(-c2ccccc2)n1 (stereo not drawn) [Example 15, N-{4-[(1,3-Benzoxazol-2-ylmethyl)amino]-3,4-dioxo-1-phenylbutan-2-yl}-2-(3-phenyl-1H-pyrazol-1-yl)pyridine-3-carboxamide]	> 6.60	–	–
O=C(NCCc1ccccc1)C(=O)C(Cc1ccccc1)NC(=O)c1cccnc1-n1ccc(-c2ccccc2)n1 (stereo not drawn) [Example 17, N-(3,4-Dioxo-4-(phenethylamino)-1-phenylbutan-2-yl)-2-(3-phenyl-1H-pyrazol-1-yl)nicotinamide]	6.40 to 6.60	–	–
O=C(NC1CCC1)C(=O)C(Cc1ccccc1)NC(=O)c1cccnc1-n1ccc(-c2ccccc2)n1 (stereo not drawn) [Example 10, N-(4-(Cyclobutylamino)-3,4-dioxo-1-phenylbutan-2-yl)-2-(3-phenyl-1H-pyrazol-1-yl)nicotinamide]	6.10 to 6.40	–	–
O=C(NC1CC1)C(=O)C(Cc1ccc(CN2CCOCC2)cc1)NC(=O)c1cccnc1-n1ccc(-c2ccccc2)n1 (stereo not drawn) [Example 25, N-{4-(Cyclopropylamino)-1-[4-(4-morpholinylmethyl)phenyl]-3,4-dioxo-2-butanyl}-2-(3-phenyl-1H-pyrazol-1-yl)nicotinamide]	6.10 to 6.40	++ (10<Ki(cathepsin S)/Ki(calpain)≦50)	–
O=C(NC1CC1)C(=O)C(Cc1ccc(OCCN2CCOCC2)cc1)NC(=O)c1cccnc1-n1ccc(-c2ccccc2)n1 (stereo not drawn) [Example 23, N-[4-(Cyclopropylamino)-1-{4-[2-(4-morpholinyl)ethoxy]phenyl}-3,4-dioxo-2-butanyl]-2-(3-phenyl-1H-pyrazol-1-yl)nicotinamide]	6.10 to 6.40	++ (10<Ki(cathepsin S)/Ki(calpain)≦50)	++ (10<Ki(cathepsin L)/Ki(calpain)≦50)
O=C(NCc1ccccn1)C(=O)C(Cc1ccccc1)NC(=O)c1cccnc1-n1ccc(-c2ccccc2)n1 (stereo not drawn) [Example 8, N-[4-(Pyridin-2-ylmethylamino)-3,4-dioxo-1-phenylbutan-2-yl]-2-(3-phenyl-1H-pyrazol-1-yl)pyridine-3-carboxamide]	> 6.60	–	–
O=C(NCc1ccccn1)C(=O)C(Cc1ccccc1)NC(=O)c1cccnc1-n1ccc(-c2ccc(F)cc2)n1 (stereo not drawn) [Example 2, N-{3,4-Dioxo-1-phenyl-4-[(pyridin-2-ylmethyl)amino]butan-2-yl}-2-[3-(4-fluorophenyl)-1H-pyrazol-1-yl]pyridine-3-carboxamide]	6.40 to 6.60	–	–
O=C(NCc1ncco1)C(=O)C(Cc1ccccc1)NC(=O)c1cccnc1-n1ccc(-c2ccccc2)n1 (stereo not drawn) [Example 24, N-{4-[(1,3-Oxazol-2-ylmethyl)amino]-3,4-dioxo-1-phenyl-2-butanyl}-2-(3-phenyl-1H-pyrazol-1-yl)nicotinamide]	6.40 to 6.60	–	–
O=C(NC1CC1)C(=O)C(Cc1ccccc1)NC(=O)c1cccnc1-n1cc(F)c(-c2ccccc2)n1 (stereo not drawn) [Example 12, N-(4-(Cyclopropylamino)-3,4-dioxo-1-phenylbutan-2-yl)-2-(4-fluoro-3-phenyl-1H-pyrazol-1-yl)nicotinamide]	6.10 to 6.40	–	–
CCCNC(=O)C(=O)C(Cc1ccccc1)NC(=O)c1cccnc1-n1ccc(-c2ccccc2)n1 (stereo not drawn) [Example 11, N-(3,4-Dioxo-1-phenyl-4-(propylamino)butan-2-yl)-2-(3-phenyl-1H-pyrazol-1-yl)nicotinamide]	6.10 to 6.40	–	–
CNC(=O)C(=O)C(Cc1ccccc1)NC(=O)c1cccnc1-n1ccc(-c2ccccc2)n1 (stereo not drawn) [Example 7, N-(4-(Methylamino)-3,4-dioxo-1-phenylbutan-2-yl)-2-(3-phenyl-1H-pyrazol-1-yl)nicotinamide, reference compound]	6.40 to 6.60	–	–
O=C(NC1CC1)C(=O)C(Cc1ccccc1)NC(=O)c1cccnc1-n1ccc(-c2ccccc2)n1 (stereo not drawn) [Example 5, N-[4-(Cyclopropylamino)-3,4-dioxo-1-phenylbutan-2-yl]-2-(3-phenyl-1H-pyrazol-1-yl)pyridine-3-carboxamide]	> 6.60	–	–
O=C(NCCCc1ccccn1)C(=O)C(Cc1ccccc1)NC(=O)c1cccnc1-n1ccc(-c2ccc(F)cc2)n1 (stereo not drawn) [Example 4, N-(3,4-Dioxo-1-phenyl-4-{[3-(pyridin-2-yl)propyl]amino}butan-2-yl)-2-[3-(4-fluorophenyl)-1H-pyrazol-1-yl]pyridine-3-carboxamide]	> 6.60	–	–
O=C(NC1CC1)C(=O)C(Cc1ccccc1)NC(=O)c1cccnc1-n1ccc(-c2ccc(F)cc2)n1 (stereo not drawn) [Example 19, N-[4-(Cyclopropylamino)-3,4-dioxo-1-phenyl-2-butanyl]-2-[3-(4-fluorophenyl)-1H-pyrazol-1-yl]nicotinamide]	6.00 to 6.10	–	–
COC(=O)CNC(=O)C(=O)C(Cc1ccccc1)NC(=O)c1cccnc1-n1ccc(-c2ccccc2)n1 (stereo not drawn) [Example 21, Methyl N-[2-oxo-4-phenyl-3-({[2-(3-phenyl-1H-pyrazol-1-yl)-3-pyridinyl]carbonyl}amino)butanoyl]glycinat]	> 6.60	–	–
C=CCNC(=O)C(=O)C(Cc1ccccc1)NC(=O)c1cccnc1-n1ccc(-c2ccccc2)n1 (stereo not drawn) [Example 6, N-[3,4-Dioxo-1-phenyl-4-(prop-2-en-1-ylamino)butan-2-yl]-2-(3-phenyl-1H-pyrazol-1-yl)pyridine-3-carboxamide]	6.10 to 6.40	–	–
O=C(NC1CC1)C(=O)C(Cc1cccc(F)c1)NC(=O)c1cccnc1-n1ccc(-c2ccccc2)n1 (stereo not drawn) [Example 14, N-(4-(Cyclopropylamino)-1-(3-fluorophenyl)-3,4-dioxobutan-2-yl)-2-(3-phenyl-1H-pyrazol-1-yl)nicotinamide]	6.40 to 6.60	–	–
NC(=O)C(=O)C(Cc1ccccc1)NC(=O)c1cccnc1-n1ccc(-c2ccc(F)cc2)n1 (stereo not drawn) [Example 18, N-(3-Amino-1-benzyl-2,3-dioxopropyl)-2-[3-(4-fluorophenyl)-1H-pyrazol-1-yl]nicotinamide, reference compound]	> 6.60	–	–
O=C(NC1CC1)C(=O)C(Cc1ccc(F)cc1)NC(=O)c1cccnc1-n1ccc(-c2ccccc2)n1 (stereo not drawn) [Example 13, N-(4-(Cyclopropylamino)-1-(4-fluorophenyl)-3,4-dioxobutan-2-yl)-2-(3-phenyl-1H-pyrazol-1-yl)nicotinamide]	6.10 to 6.40	–	–
O=C(NCc1ccccc1)C(=O)C(Cc1ccccc1)NC(=O)c1cccnc1-n1ccc(-c2ccccc2)n1 (stereo not drawn) [Example 16, N-(4-(Benzylamino)-3,4-dioxo-1-phenylbutan-2-yl)-2-(3-phenyl-1H-pyrazol-1-yl)nicotinamide]	> 6.60	–	–
O=C(NCC1CC1)C(=O)C(Cc1ccccc1)NC(=O)c1cccnc1-n1ccc(-c2ccccc2)n1 (stereo not drawn) [Example 9, N-(4-(Cyclopropylmethylamino)-3,4-dioxo-1-phenylbutan-2-yl)-2-(3-phenyl-1H-pyrazol-1-yl)nicotinamide]	6.10 to 6.40	–	–
